Assay results as given in US6521641B1, “Male anti-fertility agents” (Allergan, Inc., priority 1998, dated 2003).
Like-named read-outs stand apart in the source and are kept apart here.

Key:
[1] = Stability to light; type: physicochemical
[2] = Toxicokinetics of oral AGN 194310 in rats (drug in blood by GC/MS); type: in vivo, rat; details: for Tmax / Cmax / AUC(0-t): both sexes, Sprague-Dawley, rat, whole blood; for Tmax: Day 22; for Cmax / AUC(0-t): po; for Cmax: N = 8; for AUC(0-t): N = 8, read-out: AUC24 hr
Procedure: The concentration of drug in the blood was determined from blood drawn from the retro-orbital sinus of the right eye on Day 7 of the study as follows: for rats in groups 7 through 9 (4/sex/group/timepoint, with each animal being bled no more than 3 times), blood (approximately 1 ml) was drawn prior to being given the drug, and at approximately 2, 6, 8, 12 and 24 hours post-dosing. The vehicle-treated rats (group 6) were bled at approximately 8 and 24 hours post-dosing. The rats in groups 6 through 9 were similarly bled on Day 22 of the study, then euthanized. All blood was drawn into tubes containing EDTA to prevent coagulation, and placed on ice prior to analysis. The blood was assayed for the presence of AGN 194310 by gas chromatography/mass spectrometry.
AGN 194310 was systemically absorbed following oral administration to rats and approached the peak concentration in plasma (Cmax) at 2 or 6 hours post dosing (Tmax).

[3] = Excretion of the drug (separate experiment); type: in vivo; details: within 2 weeks following treatment

CCc1ccc(C2=CC(C)(C)Sc3ccc(C#Cc4ccc(C(=O)O)cc4)cc32)cc1 [AGN 194310, 4-[[4-(4-ethylphenyl)-2,2-dimethyl-(2H)-thiochromen-6-yl]-ethynyl]-benzoic acid]
stability to normal light [1]: relatively stable to normal light | systemic exposure to AGN 194310 ([2]; across the concentrations of AGN 194310): dose dependent increase | Tmax ([2]; 0.005 mg/kg/day): 2 h | Tmax ([2]; 0.015 mg/kg/day): 2 h | Tmax ([2]; 0.15 mg/kg/day): 6 h | Cmax ([2]; 0.005 mg/kg/day, 0.001% AGN 194310 (0.005 mg/kg/day), Day 7, mean ± SD): 1.83 ± 0.55 ng/mL | Cmax ([2]; 0.005 mg/kg/day, 0.001% AGN 194310 (0.005 mg/kg/day), Day 22, mean ± SD): 1.97 ± 0.75 ng/mL | AUC(0-t) ([2]; 0.005 mg/kg/day, Day 7, mean ± SEM): 19.6 ± 1.1 ng·h/mL | AUC(0-t) ([2]; 0.005 mg/kg/day, Day 22, mean ± SEM): 20.8 ± 1.1 ng·h/mL | Cmax ([2]; 0.015 mg/kg/day, 0.003% AGN 194310 (0.015 mg/kg/day), Day 7, mean ± SD): 4.73 ± 1.2 ng/mL | Cmax ([2]; 0.015 mg/kg/day, 0.003% AGN 194310 (0.015 mg/kg/day), Day 22, mean ± SD): 5.32 ± 1.56 ng/mL | AUC(0-t) ([2]; 0.015 mg/kg/day, Day 7, mean ± SEM): 57.6 ± 2.6 ng·h/mL | AUC(0-t) ([2]; 0.015 mg/kg/day, Day 22, mean ± SEM): 63.6 ± 2.7 ng·h/mL | Cmax ([2]; 0.15 mg/kg/day, 0.01% AGN 194310 (0.15 mg/kg/day), Day 7, mean ± SD): 43.1 ± 7.2 ng/mL | Cmax ([2]; 0.15 mg/kg/day, 0.01% AGN 194310 (0.15 mg/kg/day), Day 22, mean ± SD): 42.4 ± 9.3 ng/mL | AUC(0-t) ([2]; 0.15 mg/kg/day, Day 7, mean ± SEM): 668 ± 24 ng·h/mL | AUC(0-t) ([2]; 0.15 mg/kg/day, Day 22, mean ± SEM): 675 ± 25 ng·h/mL | drug excreted [3]: 88%
